Source: patent USRE42890E1, “Furazanobenzimidazoles” (Basilea Pharmaceutica AG, priority 2003, dated 2011)
Read-outs that look alike come from different tables or passages of the source.

What was measured:
Jurkat = assay: MTS proliferation assay, Jurkat; type: cell-based, human; conditions: 72 h incubation, read-out: MTS proliferation assay IC 50 Jurkat
Experimental: (§1) Cell lines are cultured in RPMI-1640 tissue culture medium containing either 5% or 10% fetal calf serum, 0.05 mM 2-mercaptoethanol, 2 mM glutamine and penicillin/streptomycin 50 μg/ml (complete medium) (Sigma, Buchs, Switzerland). General growth conditions are 37° C. and 7.5% CO2.
(§2) The following human cell lines (either EGFP transfected or not) are being used: HeLa (ATCC: CCL-2), KB (ATCC: CCL-17), MCF7 (ATCC: HTB-22), SK-BR-3 (ATCC: HTB-30), SK-Mel 1 (ATCC: HTB-67), SK-Mel 28 (ATCC: HTB-72), PC-3 (ATCC: CRL-1435), SW 480 (ATCC: CCL-228), NCl-H460 (ATCC: HTB-177), NCl-H1792 (ATCC: CRL-5895), HT1080 (ATCC: CCL-21), Jurkat (ATCC: TIB-152), Ramos (ATCC: CRL-1596), Raji (ATCC: CCL-86), H9 (ATCC: HTB-176), Hut78 (ATCC: TIB-161), K562 (ATCC: CCL 243), HL-60 (ATCC: CCL 240), U-87MG (ATCC: HTB-14), HepG2 (ATCC: HB-8065), U-2 OS (ATCC: HTB-96), Saos-2 (ATCC: HTB-85), U937 (ATCC: CRL 1593), Hs 578T (ATCC: HTB 126), HBL-100 (ATCC: HTB 124), Molt-4 (ATCC: CRL 1582).
(§3) The assay is performed in 96 well tissue culture plates. The cells (range: 1.5*10^3-10^4) are seeded out in 80 μl complete medium 24 h prior to compound treatment. The test compounds are added in 20 μl complete medium containing max 5% DMSO. The final compound concentrations in the assays are 10 μM, 3 μM, 1 μM and 0.3 μM, respectively. The assay plates are incubated for 72 h at culture conditions. The MTS reagent is prepared according to the manufacturer's protocol (Promega G1111). 20 μl MTS reagent are added to each well, the assay plates are quickly spun and incubated for another 3 h at culture conditions. Subsequently, the plates are shortly shaked and absorption measured with a microplate-reader at 492 nm.

HeLa = assay: MTS proliferation assay, HeLa; type: cell-based, human; conditions: 72 h incubation, read-out: MTS proliferation assay IC 50 HeLa
Experimental: as §1, §2, §3

MRC5 = assay: MTS proliferation assay, MRC5; type: cell-based; conditions: MRC5, 72 h incubation, read-out: MTS proliferation assay IC 50 MRC5
Experimental: as §1, §3

[1] = tested on: adherent cells or suspension cells; assay: Hoechst 33342 nuclear staining (fraction of apoptotic nuclei); type: cell-based; design: key: 0 relating to no activity; 1 relating to weak activity comprising less than 70% of the cells; score 2 relating to strong activity comprising more than 70% of the cells
Experimental: as §1
This assay is performed in 96 well tissue culture plates. Appropriate number of cells (adherent cells: 3-5*10^3, suspension cells: 8-10*10^3) are being seeded out in 80 μl complete medium. Adherent cells are incubated for 24 h for proper spreading out before addition of test compounds while suspension cells are immediately treated with test compounds after seeding out. The test compounds are added in 20 μl complete medium containing max 5% DMSO. […] After 24 h or 48 h incubation at culture conditions, 10 μl medium containing Hoechst 33342 dye (Sigma B-2261) at 2-5 μg/ml are added to each well. The assay plates are then further incubated for 30 minutes and subsequently analyzed with a standard inverted fluorescence microscope.
The readout allows the determination of the fraction of apoptotic nuclei as well as other morphological criteria specific for apoptosis as a function of the treatment. The following scores are used: 0 relating to no activity, 1 relating to weak activity comprising less than 70% of the cells and score 2 relating to strong activity comprising more than 70% of the cells.

## Cc1cc2nc(-c3nonc3N)n(CC(=O)c3ccc(Br)cc3)c2cc1C [Example 109]
Jurkat
  IC50: 100 to 1000 nM
HeLa
  IC50: > 1000 nM
MRC5
  IC50: > 1000 nM
[1]; H460, conc 0.01 μm
  Hoechst 33342 nuclear staining score: 0
[1]; H460, conc 0.1 μm
  Hoechst 33342 nuclear staining score: 0
[1]; H460, conc 1 μm
  Hoechst 33342 nuclear staining score: 0
[1]; HeLa, conc 0.01 μm
  Hoechst 33342 nuclear staining score: 0
[1]; HeLa, conc 0.1 μm
  Hoechst 33342 nuclear staining score: 0
[1]; HeLa, conc 1 μm
  Hoechst 33342 nuclear staining score: 0
[1]; Jily, conc 0.01 μm
  Hoechst 33342 nuclear staining score: 0
[1]; Jily, conc 0.1 μm
  Hoechst 33342 nuclear staining score: 0
[1]; Jily, conc 1 μm
  Hoechst 33342 nuclear staining score: 0
[1]; Jurkat, conc 0.01 μm
  Hoechst 33342 nuclear staining score: 0
[1]; Jurkat, conc 0.1 μm
  Hoechst 33342 nuclear staining score: 0
[1]; Jurkat, conc 1 μm
  Hoechst 33342 nuclear staining score: 0
[1]; MRC5, conc 0.01 μm
  Hoechst 33342 nuclear staining score: 0
[1]; MRC5, conc 0.1 μm
  Hoechst 33342 nuclear staining score: 0
[1]; MRC5, conc 1 μm
  Hoechst 33342 nuclear staining score: 0
[1]; PBLs, conc 0.01 μm
  Hoechst 33342 nuclear staining score: 0
[1]; PBLs, conc 0.1 μm
  Hoechst 33342 nuclear staining score: 0
[1]; PBLs, conc 1 μm
  Hoechst 33342 nuclear staining score: 0

## CON=C(Cn1c(-c2nonc2N)nc2ccccc21)c1ccc(-c2ccccc2)cc1 (mixture of isomers) [Example 28]
Jurkat
  IC50: > 1000 nM
HeLa
  IC50: > 1000 nM
MRC5
  IC50: > 1000 nM
[1]; H460, conc 0.01 μm
  Hoechst 33342 nuclear staining score: 0
[1]; H460, conc 0.1 μm
  Hoechst 33342 nuclear staining score: 0
[1]; H460, conc 1 μm
  Hoechst 33342 nuclear staining score: 0
[1]; HeLa, conc 0.01 μm
  Hoechst 33342 nuclear staining score: 0
[1]; HeLa, conc 0.1 μm
  Hoechst 33342 nuclear staining score: 0
[1]; HeLa, conc 1 μm
  Hoechst 33342 nuclear staining score: 0
[1]; Jily, conc 0.01 μm
  Hoechst 33342 nuclear staining score: 0
[1]; Jily, conc 0.1 μm
  Hoechst 33342 nuclear staining score: 0
[1]; Jily, conc 1 μm
  Hoechst 33342 nuclear staining score: 0
[1]; Jurkat, conc 0.01 μm
  Hoechst 33342 nuclear staining score: 0
[1]; Jurkat, conc 0.1 μm
  Hoechst 33342 nuclear staining score: 0
[1]; Jurkat, conc 1 μm
  Hoechst 33342 nuclear staining score: 0
[1]; MRC5, conc 0.01 μm
  Hoechst 33342 nuclear staining score: 0
[1]; MRC5, conc 0.1 μm
  Hoechst 33342 nuclear staining score: 0
[1]; MRC5, conc 1 μm
  Hoechst 33342 nuclear staining score: 0
[1]; PBLs, conc 0.01 μm
  Hoechst 33342 nuclear staining score: 0
[1]; PBLs, conc 0.1 μm
  Hoechst 33342 nuclear staining score: 0
[1]; PBLs, conc 1 μm
  Hoechst 33342 nuclear staining score: 0

## Nc1nonc1-c1nc2ccccc2n1CC(=NO)c1ccc(Br)cc1 [Example 2, 4-[1-(4-Bromophenacyl)-1H-benzimidazol-2-yl]-furazan-3-ylamine oxime]
Jurkat; Homo sapiens
  IC50: > 1000 nM
HeLa; Homo sapiens
  IC50: > 1000 nM
MRC5; Homo sapiens
  IC50: > 1000 nM
[1]; H460, conc 0.01 μm
  Hoechst 33342 nuclear staining score: 0
[1]; H460, conc 0.1 μm
  Hoechst 33342 nuclear staining score: 0
[1]; H460, conc 1 μm
  Hoechst 33342 nuclear staining score: 0
[1]; HeLa, conc 0.01 μm
  Hoechst 33342 nuclear staining score: 0
[1]; HeLa, conc 0.1 μm
  Hoechst 33342 nuclear staining score: 0
[1]; HeLa, conc 1 μm
  Hoechst 33342 nuclear staining score: 0
[1]; Jurkat, conc 0.01 μm
  Hoechst 33342 nuclear staining score: 0
[1]; Jurkat, conc 0.1 μm
  Hoechst 33342 nuclear staining score: 0
[1]; Jurkat, conc 1 μm
  Hoechst 33342 nuclear staining score: 0
[1]; MRC5, conc 0.01 μm
  Hoechst 33342 nuclear staining score: 0
[1]; MRC5, conc 0.1 μm
  Hoechst 33342 nuclear staining score: 0
[1]; MRC5, conc 1 μm
  Hoechst 33342 nuclear staining score: 0
[1]; PBLs, conc 0.01 μm
  Hoechst 33342 nuclear staining score: 0
[1]; PBLs, conc 0.1 μm
  Hoechst 33342 nuclear staining score: 0
[1]; PBLs, conc 1 μm
  Hoechst 33342 nuclear staining score: 0

## COc1ccc(C(Cn2c(-c3nonc3N)nc3ccccc32)=NO)cc1 (mixture of isomers) [Example 20]
Jurkat
  IC50: 100 to 1000 nM
HeLa
  IC50: > 1000 nM
MRC5
  IC50: > 1000 nM
[1]; H460, conc 0.01 μm
  Hoechst 33342 nuclear staining score: 0
[1]; H460, conc 0.1 μm
  Hoechst 33342 nuclear staining score: 0
[1]; H460, conc 1 μm
  Hoechst 33342 nuclear staining score: 0
[1]; HeLa, conc 0.01 μm
  Hoechst 33342 nuclear staining score: 0
[1]; HeLa, conc 0.1 μm
  Hoechst 33342 nuclear staining score: 0
[1]; HeLa, conc 1 μm
  Hoechst 33342 nuclear staining score: 0
[1]; Jurkat, conc 0.01 μm
  Hoechst 33342 nuclear staining score: 0
[1]; Jurkat, conc 0.1 μm
  Hoechst 33342 nuclear staining score: 0
[1]; Jurkat, conc 1 μm
  Hoechst 33342 nuclear staining score: 0
[1]; MRC5, conc 0.01 μm
  Hoechst 33342 nuclear staining score: 0
[1]; MRC5, conc 0.1 μm
  Hoechst 33342 nuclear staining score: 0
[1]; MRC5, conc 1 μm
  Hoechst 33342 nuclear staining score: 0
[1]; PBLs, conc 0.01 μm
  Hoechst 33342 nuclear staining score: 0
[1]; PBLs, conc 0.1 μm
  Hoechst 33342 nuclear staining score: 0
[1]; PBLs, conc 1 μm
  Hoechst 33342 nuclear staining score: 0

## COc1cccc(C(=O)Cn2c(-c3nonc3N)nc3ccccc32)c1 [Example 23]
Jurkat
  IC50: 100 to 1000 nM
HeLa
  IC50: 100 to 1000 nM
MRC5
  IC50: 100 to 1000 nM
[1]; HeLa, conc 0.01 μm
  Hoechst 33342 nuclear staining score: 0
[1]; HeLa, conc 0.1 μm
  Hoechst 33342 nuclear staining score: 0
[1]; HeLa, conc 1 μm
  Hoechst 33342 nuclear staining score: 2 (score 2 relating to strong activity comprising more than 70% of the cells)
[1]; Jurkat, conc 0.01 μm
  Hoechst 33342 nuclear staining score: 0
[1]; Jurkat, conc 0.1 μm
  Hoechst 33342 nuclear staining score: 0
[1]; Jurkat, conc 1 μm
  Hoechst 33342 nuclear staining score: 2 (score 2 relating to strong activity comprising more than 70% of the cells)
[1]; MRC5, conc 0.01 μm
  Hoechst 33342 nuclear staining score: 0
[1]; MRC5, conc 0.1 μm
  Hoechst 33342 nuclear staining score: 0
[1]; MRC5, conc 1 μm
  Hoechst 33342 nuclear staining score: 0
[1]; PBLs, conc 0.01 μm
  Hoechst 33342 nuclear staining score: 0
[1]; PBLs, conc 0.1 μm
  Hoechst 33342 nuclear staining score: 0
[1]; PBLs, conc 1 μm
  Hoechst 33342 nuclear staining score: 0

## CCN(CC)c1ccc(C(=O)Cn2c(-c3nonc3N)nc3ccccc32)cc1 [Example 39]
Jurkat
  IC50: > 1000 nM
HeLa
  IC50: > 1000 nM
MRC5
  IC50: > 1000 nM
[1]; H460, conc 0.01 μm
  Hoechst 33342 nuclear staining score: 0
[1]; H460, conc 0.1 μm
  Hoechst 33342 nuclear staining score: 0
[1]; H460, conc 1 μm
  Hoechst 33342 nuclear staining score: 0
[1]; HeLa, conc 0.01 μm
  Hoechst 33342 nuclear staining score: 0
[1]; HeLa, conc 0.1 μm
  Hoechst 33342 nuclear staining score: 0
[1]; HeLa, conc 1 μm
  Hoechst 33342 nuclear staining score: 0
[1]; Jily, conc 0.01 μm
  Hoechst 33342 nuclear staining score: 0
[1]; Jily, conc 0.1 μm
  Hoechst 33342 nuclear staining score: 0
[1]; Jily, conc 1 μm
  Hoechst 33342 nuclear staining score: 0
[1]; Jurkat, conc 0.01 μm
  Hoechst 33342 nuclear staining score: 0
[1]; Jurkat, conc 0.1 μm
  Hoechst 33342 nuclear staining score: 0
[1]; Jurkat, conc 1 μm
  Hoechst 33342 nuclear staining score: 0
[1]; MRC5, conc 0.01 μm
  Hoechst 33342 nuclear staining score: 0
[1]; MRC5, conc 0.1 μm
  Hoechst 33342 nuclear staining score: 0
[1]; MRC5, conc 1 μm
  Hoechst 33342 nuclear staining score: 0
[1]; PBLs, conc 0.01 μm
  Hoechst 33342 nuclear staining score: 0
[1]; PBLs, conc 0.1 μm
  Hoechst 33342 nuclear staining score: 0
[1]; PBLs, conc 1 μm
  Hoechst 33342 nuclear staining score: 0
